Measurements: ChEMBL document CHEMBL3638741, “Azabenzothiazole compounds, compositions and methods of use” (2014)

Biological target: Non-receptor tyrosine-protein kinase TYK2 (Homo sapiens, UniProt P29597)
Assay: Reactions were incubated at 22° C. in 384-well polypropylene microtiter plates for 30 minutes and then stopped by addition of 25 μL of an EDTA containing solution (100 mM Hepes pH 7.2, 0.015% Brij-35, 150 mM EDTA), resulting in a final EDTA concentration of 50 mM. Ki values were then determined using the Morrison tight binding model. Morrison, J. F., Biochim. Biophys. Acta. 185:269-296 (1969); William, J. W. and Morrison, J. F., Meth. Enzymol., 63:437-467 (1979).

Non-receptor tyrosine-protein kinase TYK2, sequence (P29597 whole entry): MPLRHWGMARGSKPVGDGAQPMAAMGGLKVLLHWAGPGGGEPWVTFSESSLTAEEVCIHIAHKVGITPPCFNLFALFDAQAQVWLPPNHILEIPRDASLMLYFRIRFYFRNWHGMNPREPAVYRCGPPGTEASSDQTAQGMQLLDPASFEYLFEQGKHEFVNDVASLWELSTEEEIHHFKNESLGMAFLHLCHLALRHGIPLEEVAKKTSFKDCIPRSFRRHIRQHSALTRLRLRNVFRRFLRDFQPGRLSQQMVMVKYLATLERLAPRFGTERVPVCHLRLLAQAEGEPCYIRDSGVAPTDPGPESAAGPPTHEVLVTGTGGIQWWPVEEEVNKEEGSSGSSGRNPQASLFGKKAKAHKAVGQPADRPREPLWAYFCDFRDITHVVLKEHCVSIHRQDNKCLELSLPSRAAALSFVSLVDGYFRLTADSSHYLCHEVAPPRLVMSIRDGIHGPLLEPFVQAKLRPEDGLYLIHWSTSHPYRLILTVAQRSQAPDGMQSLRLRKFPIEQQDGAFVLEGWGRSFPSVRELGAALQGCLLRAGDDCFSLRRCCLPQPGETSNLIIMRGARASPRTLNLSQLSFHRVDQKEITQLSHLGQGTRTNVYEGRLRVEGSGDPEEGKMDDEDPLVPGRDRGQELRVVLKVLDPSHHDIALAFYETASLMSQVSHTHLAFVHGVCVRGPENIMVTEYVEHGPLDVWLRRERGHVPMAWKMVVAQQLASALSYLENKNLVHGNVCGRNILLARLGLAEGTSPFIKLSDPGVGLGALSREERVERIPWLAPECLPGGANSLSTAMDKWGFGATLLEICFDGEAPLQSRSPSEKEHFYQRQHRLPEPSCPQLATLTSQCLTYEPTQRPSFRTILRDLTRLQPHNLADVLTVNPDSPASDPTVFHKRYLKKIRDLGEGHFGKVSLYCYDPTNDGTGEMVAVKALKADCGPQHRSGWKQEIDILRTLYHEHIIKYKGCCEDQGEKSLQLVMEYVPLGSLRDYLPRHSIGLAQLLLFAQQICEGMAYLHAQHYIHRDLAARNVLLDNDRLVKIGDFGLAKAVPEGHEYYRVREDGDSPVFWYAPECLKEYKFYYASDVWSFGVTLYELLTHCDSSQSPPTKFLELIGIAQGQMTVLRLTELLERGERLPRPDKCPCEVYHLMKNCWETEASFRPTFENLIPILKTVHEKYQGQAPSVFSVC

Row | Ki [µM] | SMILES
1 | 0.0014 | COC(=O)Nc1nccc2nc(-c3c(Cl)cccc3Cl)sc12
2 | 0.087 | OC1CN(c2cc(Nc3ncnc4nc(-c5c(Cl)cccc5Cl)sc34)ncn2)C1
